{"source": "patent US20250197794A1", "about": "“MEMBRANE RUPTURE COMPOSITIONS AND METHODS OF MAKING AND USING SAME” (priority 2020, published 2025)", "key": {"SF9 cells": {"test_system": "SF9 cells", "test": "Cell lysis, percent cell viability by Vi-Cell (trypan blue exclusion)", "format": "cell-based, insect", "settings": "SF9, 1 hour incubation", "protocol": "The cell rupture solution was tested both for HEK 293 and SF9 cell lines. The cell concentration was >5×10^6 cells/ml. A cell harvest in cell culture media was spiked with the concentrated stock of cell rupture solution to reach a final cell rupture solution concentration ranging from 0% to 0.5% and was incubated for about 5 minutes to about 1 hour at 15° C. to 30° C. The concentration of the stock solution could be 1-500-fold higher than the target concentration. After the incubation period, cell viability of cells was analyzed by a Vi-Cell reader.\nSF9 cells for the study were grown in SF-900 II SFM (Invitrogen/Gibco 10902) media in a non-vented non-baffled shake flask. The incubator was set at 27° C. and 125 rpm.\nFor the cell lysis study, 2 mL of cells were added to each of 10×15 mL tubes under a sterile biosafety cabinet. Each tube was spiked with 0% (control, no detergent), 0.0025%, 0.005%, 0.0075%, 0.01%, 0.02%, 0.05%, 0.1%, 0.25%, and 0.5% of cell rupture solution using a concentrated stock. Cell counts and percent cell viability were determined at 15 min, 30 min, and 1 hour time points for each sample using the ViCell cell viability analyzer.\nCell viability was assessed by a Vi-Cell XR using trypan blue exclusion staining. […]"}, "HEK 293 cells": {"test_system": "HEK 293 cells", "settings": "HEK 293, 1 hour incubation"}, "[1]": {"settings": "reference [6]; cited from earlier work"}}}
{"substance": "Octoxynol-9 [Triton X-100]", "values": [{"measurement": "detergent concentration at which cell lysis was complete", "setting": "SF9 cells", "value": 0.05, "unit": "%"}, {"measurement": "detergent concentration at which cell lysis was complete", "setting": "HEK 293 cells", "value": 0.05, "unit": "%"}, {"measurement": "toxicity reported by research", "setting": "[1]", "value": "acute oral toxicity, eye damage, skin irritation, and chronic aquatic toxicity"}]}
